Tests used:
AKT1 = molecular target: T1, AKT1 (Homo sapiens, UniProt P31749); test: CEREP protein kinase assay; type: biochemical
T1 construct: purchased CEREP Panlabs (Eurofins)

TAK1 = molecular target: T2, TAK1 (Homo sapiens, UniProt O43318); test: CEREP protein kinase assay; type: biochemical
T2 construct: purchased CEREP Panlabs (Eurofins)
T2 sequence (O43318 1-303 limits assumed): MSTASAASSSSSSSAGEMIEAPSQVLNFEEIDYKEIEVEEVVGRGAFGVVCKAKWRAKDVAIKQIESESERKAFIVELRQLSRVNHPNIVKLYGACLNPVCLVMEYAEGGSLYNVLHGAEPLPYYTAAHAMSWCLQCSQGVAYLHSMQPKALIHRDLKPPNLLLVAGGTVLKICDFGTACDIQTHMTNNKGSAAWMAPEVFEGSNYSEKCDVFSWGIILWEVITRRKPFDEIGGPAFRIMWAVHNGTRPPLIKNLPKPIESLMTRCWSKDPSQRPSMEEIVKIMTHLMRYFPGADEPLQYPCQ
T2 sequence (Q15750 437-504 partner limits assumed): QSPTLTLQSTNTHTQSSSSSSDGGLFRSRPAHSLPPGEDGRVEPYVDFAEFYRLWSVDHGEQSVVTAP

P38a = molecular target: T3, P38a (Homo sapiens, UniProt Q16539); test: CEREP protein kinase assay; type: biochemical
T3 construct: purchased CEREP Panlabs (Eurofins)

DYRK2 = molecular target: T4, DYRK2 (Homo sapiens, UniProt Q92630); test: CEREP protein kinase assay; type: biochemical
T4 construct: purchased CEREP Panlabs (Eurofins)
T4 sequence (Q92630 1-601): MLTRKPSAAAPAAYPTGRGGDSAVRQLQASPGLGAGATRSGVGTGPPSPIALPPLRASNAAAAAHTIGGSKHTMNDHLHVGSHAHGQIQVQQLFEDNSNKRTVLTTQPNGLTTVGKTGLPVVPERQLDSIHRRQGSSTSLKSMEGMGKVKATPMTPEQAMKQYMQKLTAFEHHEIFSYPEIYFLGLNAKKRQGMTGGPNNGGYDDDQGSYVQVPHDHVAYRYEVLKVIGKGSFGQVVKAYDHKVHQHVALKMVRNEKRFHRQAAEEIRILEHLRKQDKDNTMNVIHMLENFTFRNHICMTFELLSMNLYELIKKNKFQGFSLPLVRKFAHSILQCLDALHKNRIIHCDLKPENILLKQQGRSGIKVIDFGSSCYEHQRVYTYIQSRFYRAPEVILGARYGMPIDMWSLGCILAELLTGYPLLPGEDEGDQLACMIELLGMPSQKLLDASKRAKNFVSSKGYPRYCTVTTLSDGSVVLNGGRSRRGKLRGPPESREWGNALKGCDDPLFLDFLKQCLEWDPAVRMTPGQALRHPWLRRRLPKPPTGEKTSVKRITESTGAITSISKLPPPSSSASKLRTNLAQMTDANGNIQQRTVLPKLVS

MDA-MB-231met2 cells = test: MS detection of ZMP in cultured cells; type: cell-based, human; conditions: regular RPMI, calculated with 4 pL cell volume
Method: To mimic human plasma levels, low folate media is traditionally used in which the folate comes only from the defined fetal bovine serum. […] Because LSN3213128 would be dosed in mice on normal diet, cell line screening was performed under standard tissue culture conditions to identify cell lines sensitive to treatment under high folate conditions. In order to compare tissue culture values with tumor levels, an average 4 pL cell volume[36] was used to calculate cellular ZMP concentrations. In MDA-MB-231[…] cells using regular RPMI, the peak intracellular ZMP levels are about 770 μM while in the salvage deficient A9 cells ZMP is 6,500 μM. […] It is not surprising that in vivo in mice on standard chow where folate plasma levels are >10-fold lower than tissue culture that tumor ZMP levels are also lower. […] ZMP was detected in cultured cells via mass spec analysis. Cells were plated in 96-well plates at 25,000 cells per well in 100 μL with either high or low folate RPMI media and incubated overnight at 37 °C with 5% CO2. […] […] dUMP were detected using positive ion TurboIonSpray® multiple reaction monitoring mode and the data were processed with AB Sciex MultiQuantTM. Back-calculated ZMP concentrations were fit to a four-parameter logistic equation using ACTIVITYBASE 4.0 to determine EC50 values relative to the maximum observed metabolite levels.

FLT1 = molecular target: T5, FLT1 (Homo sapiens, UniProt P17948); test: CEREP protein kinase assay; type: biochemical
T5 construct: purchased CEREP Panlabs (Eurofins)
T5 sequence (P17948 27-1338): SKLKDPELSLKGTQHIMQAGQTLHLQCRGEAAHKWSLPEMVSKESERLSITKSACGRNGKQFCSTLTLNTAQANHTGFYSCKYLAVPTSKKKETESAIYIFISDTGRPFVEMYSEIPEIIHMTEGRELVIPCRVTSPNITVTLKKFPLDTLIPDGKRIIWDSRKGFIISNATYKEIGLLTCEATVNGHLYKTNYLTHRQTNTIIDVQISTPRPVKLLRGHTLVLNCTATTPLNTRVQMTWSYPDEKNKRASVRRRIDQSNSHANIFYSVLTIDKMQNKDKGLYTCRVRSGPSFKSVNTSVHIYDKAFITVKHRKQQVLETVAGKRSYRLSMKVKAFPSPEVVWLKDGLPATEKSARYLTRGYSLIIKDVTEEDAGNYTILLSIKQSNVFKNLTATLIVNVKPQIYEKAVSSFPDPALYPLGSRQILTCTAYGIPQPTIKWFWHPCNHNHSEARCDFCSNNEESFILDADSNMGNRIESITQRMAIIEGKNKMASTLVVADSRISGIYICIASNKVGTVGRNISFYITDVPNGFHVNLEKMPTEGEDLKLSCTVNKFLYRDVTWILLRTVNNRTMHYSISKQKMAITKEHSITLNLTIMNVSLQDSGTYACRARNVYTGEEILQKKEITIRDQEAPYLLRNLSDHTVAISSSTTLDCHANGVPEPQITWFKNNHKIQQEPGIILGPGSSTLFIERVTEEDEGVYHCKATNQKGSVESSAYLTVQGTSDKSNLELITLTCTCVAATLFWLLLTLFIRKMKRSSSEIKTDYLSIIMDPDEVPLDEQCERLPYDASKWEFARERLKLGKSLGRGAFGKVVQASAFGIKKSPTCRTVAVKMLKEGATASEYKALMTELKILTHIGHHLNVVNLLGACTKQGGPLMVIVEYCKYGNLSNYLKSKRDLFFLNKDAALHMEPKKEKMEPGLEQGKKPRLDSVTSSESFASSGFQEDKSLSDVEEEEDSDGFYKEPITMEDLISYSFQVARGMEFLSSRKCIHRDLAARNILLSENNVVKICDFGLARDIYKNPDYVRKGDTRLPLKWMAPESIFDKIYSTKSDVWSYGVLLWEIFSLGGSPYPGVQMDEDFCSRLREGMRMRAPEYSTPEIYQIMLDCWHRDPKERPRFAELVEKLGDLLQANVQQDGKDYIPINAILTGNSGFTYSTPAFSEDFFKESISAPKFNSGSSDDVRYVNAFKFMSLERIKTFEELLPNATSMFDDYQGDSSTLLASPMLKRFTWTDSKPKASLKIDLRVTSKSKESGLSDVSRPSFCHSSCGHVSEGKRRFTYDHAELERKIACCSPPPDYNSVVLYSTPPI

T1 sequence (P31749 whole entry): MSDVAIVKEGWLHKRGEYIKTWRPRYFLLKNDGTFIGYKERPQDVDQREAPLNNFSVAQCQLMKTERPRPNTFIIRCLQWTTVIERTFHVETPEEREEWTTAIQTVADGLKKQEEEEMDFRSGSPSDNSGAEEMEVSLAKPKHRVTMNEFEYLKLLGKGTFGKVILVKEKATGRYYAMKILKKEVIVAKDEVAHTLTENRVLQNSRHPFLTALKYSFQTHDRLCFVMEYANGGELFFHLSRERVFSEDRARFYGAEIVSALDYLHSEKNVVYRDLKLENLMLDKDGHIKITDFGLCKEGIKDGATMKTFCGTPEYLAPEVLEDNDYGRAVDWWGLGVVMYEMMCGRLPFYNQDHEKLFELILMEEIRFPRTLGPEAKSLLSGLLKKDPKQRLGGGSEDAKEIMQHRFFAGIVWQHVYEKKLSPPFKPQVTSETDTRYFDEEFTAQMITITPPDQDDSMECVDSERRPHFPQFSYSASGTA
T3 sequence (Q16539 whole entry): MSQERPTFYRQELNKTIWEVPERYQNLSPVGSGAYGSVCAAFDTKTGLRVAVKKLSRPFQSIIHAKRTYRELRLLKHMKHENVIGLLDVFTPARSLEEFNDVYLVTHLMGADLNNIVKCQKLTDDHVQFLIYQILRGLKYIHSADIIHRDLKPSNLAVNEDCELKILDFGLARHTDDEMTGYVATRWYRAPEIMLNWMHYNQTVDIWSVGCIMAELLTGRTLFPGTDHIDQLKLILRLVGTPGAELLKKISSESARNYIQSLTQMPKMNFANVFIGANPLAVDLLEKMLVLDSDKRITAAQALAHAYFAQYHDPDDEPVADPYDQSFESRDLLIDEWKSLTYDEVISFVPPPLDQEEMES

O=c1[nH]ccc2cc(F)c(NS(=O)(=O)c3ccc(N4CC[C@@H](O)C4)s3)cc12 [LSN3213128, N-(6-Fluoro-1-oxo-1,2-dihydroisoquinolin-7-yl)-5-[(3R)-3-hydroxypyrrolidin-1-yl]thiophene-2-sulfonamide] showed an inhibition at 0.2 µM (AKT1; @ 0.2 uM) of -1.76%, an inhibition at 2 µM (AKT1; @ 2 uM) of 5.52% and an inhibition at 20 µM (AKT1; @ 20 uM) of -6.9%. For the same molecule, the inhibition at 0.2 µM (TAK1; @ 0.2 uM) was -0.355%, the inhibition at 2 µM (TAK1; @ 2 uM) was 4.6% and the inhibition at 20 µM (TAK1; @ 20 uM) was 19.3%. It also gave an inhibition at 0.2 µM (P38a; @ 0.2 uM) of -2.24%, an inhibition at 2 µM (P38a; @ 2 uM) of -2.52% and an inhibition at 20 µM (P38a; @ 20 uM) of 32.3%. It also gave an inhibition at 0.2 µM (DYRK2; @ 0.2 uM) of -2.01%, an inhibition at 2 µM (DYRK2; @ 2 uM) of -0.829% and an inhibition at 20 µM (DYRK2; @ 20 uM) of 11.7%. For the same molecule, the “peak intracellular ZMP levels” value (MDA-MB-231met2 cells) was “about 770 μM”, the inhibition at 0.2 µM (FLT1; @ 0.2 uM) was -9.26% and the inhibition at 2 µM (FLT1; @ 2 uM) was 4.29%. It also gave an inhibition at 20 µM (FLT1; @ 20 uM) of 33.8%.

— publication PMC6193938, “Characterization of a novel AICARFT inhibitor which potently elevates ZMP and has anti-tumor activity in murine models” (Scientific Reports, 2018)
